Reference: patent US11807644B2 (PMV Pharmaceuticals, Inc., priority 2020, dated 2023)

molecular target: T1, recombinant His-tag Y220C p53 DBD protein (Homo sapiens, UniProt P04637, Y220C); test: In vitro DNA binding activity assay (TR-FRET): binding of His-tag Y220C p53 DBD to biotin-labeled consensus DNA; format: biochemical; settings: SC150 = concentration to increase DNA binding by […], His-tag Y220C p53 DBD, biotin-labeled consensus DNA
T1 construct: recombinant His-tag Y220C p53 DBD protein (amino acids #˜94-312)

SMILES | Y220C SC150 (μM)
CC(C)n1cc(C(=O)NCc2nc(-c3cc4c(N[C@@H]5CCN(C)C[C@@H]5F)cccc4n3CC(F)(F)F)no2)cn1 [Compound 255B, N-{[3-(4-{[(3S,4R)-3-fluoro-1-methylpiperidin-4-yl]amino}-1-(2,2,2-trifluoroethyl)-1H-indol-2-yl)-1,2,4-oxadiazol-5-yl]methyl}-1-(propan-2-yl)-1H-pyrazole-4-carboxamide] | * (* = 0 μM ≤ SC150 < 0.1 μM)
CN1CC[C@@H](Nc2cccc3c2cc(-c2noc(CNC(=O)[C@@H]4C[C@H]4c4ccccn4)n2)n3CC(F)(F)F)[C@@H](F)C1 [Compound 226B, (1R,2R)-N-{[3-(4-{[(3S,4R)-3-fluoro-1-methylpiperidin-4-yl]amino}-1-(2,2,2-trifluoroethyl)-1H-indol-2-yl)-1,2,4-oxadiazol-5-yl]methyl}-2-(pyridin-2-yl)cyclopropane-1-carboxamide] | * (* = 0 μM ≤ SC150 < 0.1 μM)
CN1CC[C@@H](Nc2cccc3c2cc(-c2noc(CN(C)c4cn[nH]c4)n2)n3CC(F)(F)F)[C@@H](F)C1 (racemic) [Compound 192B, (+/−)-N-[(3R,4S)-3-fluoro-1-methylpiperidin-4-yl]-2-(5-{[methyl(1H-pyrazol-4-yl)amino]methyl}-1,2,4-oxadiazol-3-yl)-1-(2,2,2-trifluoroethyl)-1H-indol-4-amine] | * (* = 0 μM ≤ SC150 < 0.1 μM)
CN1CC[C@@H](Nc2cccc3c2cc(-c2noc(CNC(=O)c4cnn(C)c4)n2)n3CC(F)(F)F)[C@@H](F)C1 [Compound 294B, N-{[3-(4-{[(3S,4R)-3-fluoro-1-methylpiperidin-4-yl]amino}-1-(2,2,2-trifluoroethyl)-1H-indol-2-yl)-1,2,4-oxadiazol-5-yl]methyl}-1-methyl-1H-pyrazole-4-carboxamide] | * (* = 0 μM ≤ SC150 < 0.1 μM)
CC(=O)N1CCC(Nc2cccc3c2cc(-c2noc(CNC(=O)C4CC4)n2)n3CC(F)(F)F)CC1 [Compound 161B, N-[(3-{4-[(1-acetylpiperidin-4-yl)amino]-1-(2,2,2-trifluoroethyl)-1H-indol-2-yl}-1,2,4-oxadiazol-5-yl)methyl]cyclopropanecarboxamide] | * (* = 0 μM ≤ SC150 < 0.1 μM)
CCN1CC[C@@H](Nc2cccc3c2cc(-c2noc(CNC(=O)c4ccn(CCF)c4)n2)n3CC(F)(F)F)[C@@H](F)C1 [Compound 293B, N-{[3-(4-{[(3S,4R)-1-ethyl-3-fluoropiperidin-4-yl]amino}-1-(2,2,2-trifluoroethyl)-1H-indol-2-yl)-1,2,4-oxadiazol-5-yl]methyl}-1-(2-fluoroethyl)-1H-pyrrole-3-carboxamide] | * (* = 0 μM ≤ SC150 < 0.1 μM)
COc1cc(S(C)(=O)=O)ccc1NCc1ccc(-c2cc3c(N[C@H]4CCN(C)C[C@H]4F)cccc3n2CC(F)(F)F)s1 (racemic) [Compound 101B, (+/−)-N-[(3R,4S)-3-fluoro-1-methylpiperidin-4-yl]-2-(5-{[(4-methanesulfonyl-2-methoxyphenyl)amino]methyl}thiophen-2-yl)-1-(2,2,2-trifluoroethyl)-1H-indol-4-amine] | * (* = 0 μM ≤ SC150 < 0.1 μM)
CN1CCC(Nc2cccc3c2cc(-c2noc(CNC(=O)c4cccs4)n2)n3CC(F)(F)F)CC1 [Compound 143B, N-[(3-{4-[(1-methylpiperidin-4-yl)amino]-1-(2,2,2-trifluoroethyl)-1H-indol-2-yl}-1,2,4-oxadiazol-5-yl)methyl]thiophene-2-carboxamide] | * (* = 0 μM ≤ SC150 < 0.1 μM)
CN1CCC(Nc2cccc3c2cc(-c2nnc(CNC(=O)c4ccc(C(=O)O)cc4)s2)n3CC(F)(F)F)CC1 [Compound 54B, 4-{[(5-{4-[(1-methylpiperidin-4-yl)amino]-1-(2,2,2-trifluoroethyl)-1H-indol-2-yl}-1,3,4-thiadiazol-2-yl)methyl]carbamoyl}benzoic acid] | ** (** = 0.1 μM ≤ SC150 < 0.5 μM)

Other lines, results leading:

Y220C SC150 (μM) | SMILES
* (* = 0 μM ≤ SC150 < 0.1 μM) | COCC(C)(C)n1cc(C(=O)NCc2nc(-c3cc4c(N[C@H]5CCN(C(C)(C)C)C[C@H]5F)cccc4n3CC(F)(F)F)no2)cn1 [Compound 413B, N-{[3-(4-{[(3R,4S)-1-tert-butyl-3-fluoropiperidin-4-yl]amino}-1-(2,2,2-trifluoroethyl)-1H-indol-2-yl)-1,2,4-oxadiazol-5-yl]methyl}-1-(1-methoxy-2-methylpropan-2-yl)-1H-pyrazole-4-carboxamide]
* (* = 0 μM ≤ SC150 < 0.1 μM) | CN1CC[C@@H](Nc2cccc3c2cc(-c2noc(CNC(=O)c4csc(N5CCCC5)n4)n2)n3CC(F)(F)F)[C@@H](F)C1 [Compound 460B, N-{[3-(4-{[(3S,4R)-3-fluoro-1-methylpiperidin-4-yl]amino}-1-(2,2,2-trifluoroethyl)-1H-indol-2-yl)-1,2,4-oxadiazol-5-yl]methyl}-2-(pyrrolidin-1-yl)-1,3-thiazole-4-carboxamide]
* (* = 0 μM ≤ SC150 < 0.1 μM) | CN1CC[C@@H](Nc2cccc3c2cc(-c2noc(CNC(=O)c4cnn(C5CC5)c4)n2)n3CC(F)(F)F)[C@@H](F)C1 [Compound 296B, 1-cyclopropyl-N-{[3-(4-{[(3S,4R)-3-fluoro-1-methylpiperidin-4-yl]amino}-1-(2,2,2-trifluoroethyl)-1H-indol-2-yl)-1,2,4-oxadiazol-5-yl]methyl}-1H-pyrazole-4-carboxamide]
* (* = 0 μM ≤ SC150 < 0.1 μM) | COCCN1CC[C@@H](Nc2cccc3c2cc(-c2noc(CNC(=O)c4ccn(C(C)(C)C)c4)n2)n3CC(F)(F)F)[C@@H](F)C1 [Compound 337B, 1-tert-butyl-N-{[3-(4-{[(3S,4R)-3-fluoro-1-(2-methoxyethyl)piperidin-4-yl]amino}-1-(2,2,2-trifluoroethyl)-1H-indol-2-yl)-1,2,4-oxadiazol-5-yl]methyl}-1H-pyrrole-3-carboxamide]
* (* = 0 μM ≤ SC150 < 0.1 μM) | COC[C@@H]1CCCN1c1cc(C(=O)NCc2nc(-c3cc4c(N[C@@H]5CCN(C)C[C@@H]5F)cccc4n3CC(F)(F)F)no2)cs1 [Compound 537B, N-{[3-(4-{[(3S,4R)-3-fluoro-1-methylpiperidin-4-yl]amino}-1-(2,2,2-trifluoroethyl)-1H-indol-2-yl)-1,2,4-oxadiazol-5-yl]methyl}-5-[(2S)-2-(methoxymethyl)pyrrolidin-1-yl]thiophene-3-carboxamide]
* (* = 0 μM ≤ SC150 < 0.1 μM) | CC(C)N1CC[C@@H](Nc2cccc3c2cc(-c2noc(CNC(=O)c4cn(C(C)(C)C)cn4)n2)n3CC(F)(F)F)[C@@H](F)C1 [Compound 318B, 1-tert-butyl-N-{[3-(4-{[(3S,4R)-3-fluoro-1-(propan-2-yl)piperidin-4-yl]amino}-1-(2,2,2-trifluoroethyl)-1H-indol-2-yl)-1,2,4-oxadiazol-5-yl]methyl}-1H-imidazole-4-carboxamide]
* (* = 0 μM ≤ SC150 < 0.1 μM) | C[C@@H]1CN(C)CC[C@@H]1Nc1cccc2c1cc(-c1noc(CNC(=O)c3ccc(C(C)(C)O)s3)n1)n2CC(F)(F)F (stereo in doubt) [Compound 515B, N-{[3-(4-{[(3R,4S)-1,3-dimethylpiperidin-4-yl]amino}-1-(2,2,2-trifluoroethyl)-1H-indol-2-yl)-1,2,4-oxadiazol-5-yl]methyl)-5-(2-hydroxypropan-2-yl)thiophene-2-carboxamide]
* (* = 0 μM ≤ SC150 < 0.1 μM) | CN1CC[C@@H](Nc2cccc3c2cc(-c2noc(CNC(=O)c4ccn(C5(CO)CC5)c4)n2)n3CC(F)(F)F)[C@@H](F)C1 [Compound 472B, N-{[3-(4-{[(3S,4R)-3-fluoro-1-methylpiperidin-4-yl]amino}-1-(2,2,2-trifluoroethyl)-1H-indol-2-yl)-1,2,4-oxadiazol-5-yl]methyl}-1-[1-(hydroxymethyl)cyclopropyl]-1H-pyrrole-3-carboxamide]
* (* = 0 μM ≤ SC150 < 0.1 μM) | CC(C)(C)N1CC[C@@H](Nc2cccc3c2cc(-c2noc(CNC(=O)c4ccn(C(C)(C)C)c4)n2)n3CC(F)(F)F)[C@H](F)C1 [Compound 394B, 1-tert-butyl-N-{[3-(4-{[(3R,4R)-1-tert-butyl-3-fluoropiperidin-4-yl]amino}-1-(2,2,2-trifluoroethyl)-1H-indol-2-yl)-1,2,4-oxadiazol-5-yl]methyl}-1H-pyrrole-3-carboxamide]
* (* = 0 μM ≤ SC150 < 0.1 μM) | CC(C)(C)n1ccc(C(=O)NCc2nc(-c3cc4c(NC5CCn6ccnc6C5)cccc4n3CC(F)(F)F)no2)c1 (centres unmarked) [Compound 366B, 1-tert-butyl-N-({3-[4-({5H,6H, 7H,8H-imidazo[1,2-a]pyridin-7-yl}amino)-1-(2,2,2-trifluoroethyl)-1H-indol-2-yl]-1,2,4-oxadiazol-5-yl}methyl)-1H-pyrrole-3-carboxamide]

same assay, conditions: concentration to increase DNA binding by […], incubated at either 27° C. or 29° C. for 60 min

SMILES | SC150 (μM)
CNC(=O)c1cccc(-c2cc3c(NC4CCS(=O)(=O)CC4)cccc3n2CC(F)(F)F)c1 [Compound 22A, 3-{4-[(1,1-dioxo-1λ^6-thian-4-yl)amino]-1-(2,2,2-trifluoroethyl)-1H-indol-2-yl}-N-methylbenzamide] | ++ (++ = 2 μM ≤ SC150 < 5 μM)
COCC(O)CN1CCC(Nc2cccc3c2cc(-c2cccc(NC(C)=O)c2)n3CC(F)(F)F)CC1 (centres unmarked) [Compound 51A, N-[3-(4-{[1-(2-hydroxy-3-methoxypropyl)piperidin-4-yl]amino}-1-(2,2,2-trifluoroethyl)-1H-indol-2-yl)phenyl]acetamide] | ++++ (++++ = 10 μM ≤ SC150 < 35 μM)
COCC(O)CN1CCC(Nc2cccc3c2cc(-c2ccc4c(C)[nH]nc4c2)n3CC(F)(F)F)CC1 (centres unmarked) [Compound 47A, 1-methoxy-3-(4-{[2-(3-methyl-2H-indazol-6-yl)-1-(2,2,2-trifluoroethyl)-1H-indol-4-yl]amino}piperidin-1-yl)propan-2-ol] | +++ (+++ = 5 μM ≤ SC150 < 10 μM)
CC(C)(C)c1ccc(C(=O)NCc2ccc(-c3cc4c(NC5CCS(=O)(=O)CC5)cccc4n3CC(F)(F)F)cc2)cc1 [Compound 15A, 4-tert-butyl-N-[(4-{4-[(1,1-dioxo-1λ^6-thian-4-yl)amino]-1-(2,2,2-trifluoroethyl)-1H-indol-2-yl}phenyl)methyl]benzamide] | +++ (+++ = 5 μM ≤ SC150 < 10 μM)
